Experimental data published in ChEMBL document CHEMBL1201862, “PubChem BioAssay data set” (2004).
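Cells were grown in 96-well plates and exposed to each compound for 48 hours at five concentrations; endpoints were interpolated linearly between bracketing concentrations, or set to the highest concentration if not reached. Abbreviation: GI50, concentration required for 50% inhibition of growth.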 The source made the active and inactive calls. Rule as the data show it: active = GI50 up to about 1.1 µM and inactive = higher.

Experiments:
Assay in all cases: DTP human tumour cell line panel, 48 h
PC-3 = tested on: PC-3
RXF 393 = tested on: RXF 393
NCI-H226 = tested on: NCI-H226
786-0 = tested on: 786-0
HT-29 = tested on: HT-29
SF-539 = tested on: SF-539
LOX IMVI = tested on: LOX IMVI
MOLT-4 = tested on: MOLT-4
T47D = tested on: T47D
CCRF-CEM = tested on: CCRF-CEM
SNB-19 = tested on: SNB-19
TK-10 = tested on: TK-10
K562 = tested on: K562
SK-OV-3 = tested on: SK-OV-3
NCI-H460 = tested on: NCI-H460
SF-268 = tested on: SF-268
OVCAR-5 = tested on: OVCAR-5
OVCAR-8 = tested on: OVCAR-8
HCT-116 = tested on: HCT-116
UACC-62 = tested on: UACC-62

Measured: GI50

CSc1ccc(/C=C/c2ccnc3ccccc23)cc1
inactive: PC-3 6.67 µM | RXF 393 18.5 µM | NCI-H226 14.5 µM | 786-0 14.8 µM | HT-29 14 µM | SF-539 17.6 µM | LOX IMVI 12.7 µM | MOLT-4 12.2 µM | T47D 5.58 µM | CCRF-CEM 17.9 µM | SNB-19 17.7 µM | TK-10 13.9 µM | K562 5.47 µM | SK-OV-3 16 µM | NCI-H460 12.2 µM | SF-268 26 µM | OVCAR-5 17.7 µM | OVCAR-8 15.5 µM | HCT-116 10.5 µM

O=c1ccn(-c2ccccn2)c(=O)n1-c1ccccn1
inactive: PC-3 > 100 µM | RXF 393 > 100 µM | NCI-H226 > 100 µM | 786-0 > 100 µM | HT-29 > 100 µM | SF-539 > 100 µM | LOX IMVI > 100 µM | MOLT-4 > 100 µM | T47D > 100 µM | CCRF-CEM > 100 µM | SNB-19 > 100 µM | TK-10 > 100 µM | K562 > 100 µM | SK-OV-3 > 100 µM | NCI-H460 > 100 µM | SF-268 > 100 µM | OVCAR-5 > 100 µM | OVCAR-8 > 100 µM | HCT-116 > 100 µM

O=[N+]([O-])c1cccc(/N=C2\c3ccccc3CN2c2cccc([N+](=O)[O-])c2)c1
inactive: PC-3 72.8 µM | RXF 393 31.9 µM | NCI-H226 > 100 µM | 786-0 50.7 µM | HT-29 > 100 µM | SF-539 71 µM | LOX IMVI > 100 µM | MOLT-4 > 100 µM | T47D > 100 µM | SNB-19 > 100 µM | TK-10 > 100 µM | K562 > 100 µM | SK-OV-3 > 100 µM | UACC-62 > 100 µM | NCI-H460 > 100 µM | SF-268 81.5 µM | OVCAR-5 > 100 µM | OVCAR-8 > 100 µM | HCT-116 > 100 µM

CCOC(=O)c1nnsc1NN=C(C)C
inactive: PC-3 > 100 µM | RXF 393 > 100 µM | NCI-H226 > 100 µM | 786-0 > 100 µM | HT-29 > 100 µM | SF-539 > 100 µM | LOX IMVI > 100 µM | MOLT-4 > 100 µM | T47D > 100 µM | TK-10 > 100 µM | K562 > 100 µM | SK-OV-3 > 100 µM | UACC-62 > 100 µM | NCI-H460 > 100 µM | SF-268 > 100 µM | OVCAR-5 > 100 µM | OVCAR-8 > 100 µM | HCT-116 > 100 µM

c1csc(-c2ccc(-c3cccc4nsnc34)s2)c1
inactive: PC-3 > 100 µM | RXF 393 94.4 µM | NCI-H226 > 100 µM | 786-0 39.5 µM | SF-539 > 100 µM | LOX IMVI > 100 µM | MOLT-4 18.7 µM | T47D 5.32 µM | CCRF-CEM 20.2 µM | SNB-19 > 100 µM | TK-10 70.5 µM | K562 32 µM | SK-OV-3 > 100 µM | UACC-62 > 100 µM | NCI-H460 > 100 µM | SF-268 > 100 µM | OVCAR-5 71.1 µM | OVCAR-8 > 100 µM | HCT-116 94.8 µM

CCNCC(=O)Nc1ccc2c(c1)C(=O)c1ccc(NC(=O)CNCC)cc1C2=O
inactive: PC-3 2.76 µM | RXF 393 2.53 µM | NCI-H226 5.51 µM | 786-0 2.14 µM | HT-29 2.45 µM | SF-539 4.97 µM | LOX IMVI 2.26 µM | T47D 3.86 µM | CCRF-CEM 2.9 µM | SNB-19 2.7 µM | TK-10 5.22 µM | K562 1.78 µM | SK-OV-3 2.76 µM | UACC-62 3.75 µM | NCI-H460 1.49 µM | SF-268 3.27 µM | OVCAR-5 3.01 µM | OVCAR-8 2.18 µM | HCT-116 1.44 µM

CCOC(=O)c1nc2ccccc2nc1Oc1ccc(F)cc1
inactive: PC-3 > 100 µM | RXF 393 46.8 µM | NCI-H226 > 100 µM | 786-0 > 100 µM | HT-29 > 100 µM | SF-539 > 100 µM | LOX IMVI > 100 µM | T47D > 100 µM | CCRF-CEM > 100 µM | SNB-19 > 100 µM | TK-10 > 100 µM | K562 > 100 µM | SK-OV-3 > 100 µM | UACC-62 > 100 µM | NCI-H460 > 100 µM | SF-268 55.8 µM | OVCAR-5 > 100 µM | OVCAR-8 > 100 µM | HCT-116 > 100 µM

COc1ccc2oc(=O)c(-c3csc(-c4ccccc4)n3)cc2c1
inactive: PC-3 89.5 µM | RXF 393 24.9 µM | NCI-H226 39.2 µM | 786-0 17.9 µM | HT-29 55.1 µM | SF-539 16.9 µM | LOX IMVI 54.8 µM | MOLT-4 > 100 µM | T47D > 100 µM | CCRF-CEM > 100 µM | SNB-19 20.5 µM | TK-10 22.9 µM | K562 > 100 µM | SK-OV-3 17.3 µM | UACC-62 34.5 µM | NCI-H460 54 µM | SF-268 28.8 µM | OVCAR-5 > 100 µM | HCT-116 35.6 µM
